According to PubChem BioAssay (NCI):
Values joined by “and” are separate entries in the source; they are usually repeats but may differ in a detail not shown here. Equal entries are not always repeated.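 How tested: cells in 96-well plates exposed to compound for 48 hours at five concentrations. GI50: concentration for 50% inhibition of growth. TGI is the concentration that stops growth completely.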

Tested on: MDA-MB-468 breast
Test: NCI tumour cell line growth inhibition, 48 h

Structure (SMILES)	GI50	TGI
C[C@]12CC[C@H]3[C@@H](C[C@@H]4SC(Nc5ccccc5)=N[C@@]45CC(O)CC[C@]35C)[C@@H]1CCC2O (stereo not given in full)	1.72 µM	3.38 µM
C#C[C@]1(O)CC[C@H]2[C@@H]3CC=C4c5sc(Nc6cc(OC)ccc6OC)nc5CC[C@]4(C)[C@H]3CC[C@@]21C	1.53 µM	3.96 µM
Cc1cc(C(=O)NC(CCC(=O)O)C(=O)O)sc1CCC1CNc2nc(N)[nH]c(=O)c2C1 (stereo not given)	0.0584 µM and 0.0838 µM	> 100 µM
CN1CCN(c2nc(NCCCNc3ccnc4cc(Cl)ccc34)c3ccccc3n2)CC1	2.14 µM	6.14 µM
COC(=O)/C=C1/SC(N2N=C(c3cccs3)CC2c2ccc(F)cc2)=NC1=O (stereo not given)	1.94 µM	4.37 µM
O=C1C(=O)c2ccccc2C(O)=C1CCCc1ccc(C2CCCCCC2)cc1	0.397 µM	17.2 µM
CCc1cc2ncc(CN3CCN(c4ccc(C(=O)NC)nc4)CC3)cc2[nH]c1=O	13.3 µM	> 100 µM
COc1cc2ncnc(Nc3ccc4c(cnn4Cc4ccccc4)c3)c2cc1OC	0.0596 µM	0.584 µM
COc1cc(N2CCN(C(C)C)CC2)ccc1Nc1nc(Nc2cccc(F)c2C(=O)O)c2cc[nH]c2n1	> 25 µM	> 25 µM
CCCCNC(=O)c1cc(NCc2cc(O)ccc2O)ccc1O	12.3 µM	33.9 µM
Cc1cc(C(=O)O)c(C)n1-c1cccc(C(=O)O)c1	> 100 µM	> 100 µM
CC(C)n1nc(-c2ccc3oc(N)nc3c2)c2c(N)ncnc21	< 0.01 µM and 0.0101 µM	0.0649 µM and 0.0633 µM
C[n+]1c(-c2ccc(/C=N/NC(=O)c3ccc(C(=O)N/N=C/c4ccc(-c5cn6ccccc6[n+]5C)cc4)cc3)cc2)cn2ccccc21	114 µM	326 µM
COc1ccc(/C=C2\CN(Cc3cn(CCNc4ccnc5cc(Cl)ccc45)nn3)C/C(=C\c3ccc(OC)c(OC)c3)C2=O)cc1OC	1.51 µM	4.41 µM
COc1cc(C2C3=C(COC3=O)Nc3c2ccc2c3CCCC2)cc2c1OCO2 (stereo not given)	0.0287 µM	0.0986 µM
CN(c1ccc(Br)cc1)S(=O)(=O)c1ccc(-c2cnc(C3CC3)o2)cc1	0.0414 µM	–
CN1CCN(Cc2ccc(NC(=O)c3cncc(C#Cc4cncc5nccnc45)c3)cc2C(F)(F)F)CC1	7.06 µM	15.9 µM
Cc1cc2nc3cc(C)c(N)cc3[n+](-c3ccccc3)c2cc1N	0.0798 µM	1.12 µM
c1cncc(C2Nc3cccc4cccc(c34)N2)c1	2.93 µM	16.7 µM
Cn1c2ccccc2c2c3[nH][nH]c(=O)c3c3c4ccccc4[nH]c3c21	2.28 µM	9.19 µM
Nc1nc(N)c2c(n1)NC(c1ccccc1)C1CCc3ccccc3C1=N2 (stereo not given)	0.473 µM	3.25 µM
CCCCc1n(Cc2ccc3ccccc3c2)cc[n+]1Cc1ccc2ccccc2c1	0.297 µM	1.13 µM
N#Cc1c(N)nc(N)nc1N[C@H](c1nc2c(F)ccc(Cl)c2c(=O)n1-c1cccnc1)C1CC1	2.04 µM	13.9 µM
C[C@]1(Cn2ccnn2)C(C(=O)O)N2C(=O)CC2S1(=O)=O (stereo not given in full)	> 100 µM	> 100 µM

Structure (SMILES)	GI50	TGI
CCC(=O)Nc1ccccc1C#C/C=C\C#Cc1ccccc1C(F)(F)F	1.98 µM	> 14 µM
NCCOc1ccccc1/C=C1\c2ccccc2-c2ccc([N+](=O)[O-])cc21	1.54 µM	3.11 µM
Cc1[nH]c(-c2nc3ccccc3[nH]2)c(C)c1C(=O)NC(C)C1CCCCC1 (stereo not given)	6.82 µM	28.3 µM
Cc1ccc(C2=Nc3c(N)ncnc3NC(c3ccc4c(c3)OCO4)C2)cc1 (stereo not given)	3.68 µM	> 100 µM
O=C1Nc2ccccc2/C1=C\c1nc(C2CCN(S(=O)(=O)c3ccc(F)cc3)CC2)n2ccccc12	3.92 µM	> 100 µM
COc1cc(-c2n/c(=C\c3c(O)[nH]c4cc(Cl)ccc34)cc3c2=Nc2ccccc2-3)cc(OC)c1OC	3.34 µM	20.9 µM
CCN(CC)CCN(Cc1ccc(F)cc1)c1ccc(CO)c(Cl)c1	0.43 µM	1.75 µM
N=C(N)c1ccc(-c2ccc(-c3cccs3)s2)s1	0.217 µM	0.651 µM
Cc1ccc(C(SCC(N)C(=O)O)(c2ccccc2)c2ccccc2)cc1 (stereo not given)	0.0453 µM	> 49.5 µM
COc1ccc2c(Cl)cc(NC(=O)Nc3c(C)cccc3C)nc2c1	84.8 µM	> 100 µM
COc1ccc(Cn2cc3c(c2-c2cc(OC)c(OC)c(OC)c2)CCc2c(CN4CCOCC4)noc2-3)cc1	0.453 µM	> 100 µM
CCCNC(=O)c1ccc(Cl)cc1Cl	> 100 µM	> 100 µM
CCCCNC(=O)Oc1ccc(/C(=C(/C)Cc2ccc(OC)cc2)c2ccc(OCCN3CCCC3)cc2)cc1	1.72 µM	3.43 µM
Cc1cc(N2CCCC2)nc(NCc2cc(Nc3ccnc4cc(Cl)ccc34)ccc2F)n1	1.14 µM	2.61 µM
CCCCC(=O)N/N=C/c1c(O)ccc2ccccc12	0.999 µM	11.7 µM
COc1cc(-c2cc(/C=C/C(=O)c3ccc(Cl)c(Cl)c3)[nH]n2)cc(OC)c1OC	1.98 µM	7.22 µM
COCCN1CCN(Cc2ccc(-c3n[nH]c4c3C(=O)c3c(NC(=O)NN5CCOCC5)cccc3-4)cc2)CC1	0.0198 µM	0.0669 µM
COc1ccc2c(c1)CCCN2S(=O)(=O)c1ccccc1[N+](=O)[O-]	25.7 µM	95.1 µM
CN(C)CC(C(=O)Cc1ccccc1)c1ccccc1 (stereo not given)	0.494 µM	2.05 µM
CCOC(=O)c1c(C)nc2c(c1N)CC(=O)N2CCc1ccccc1	2.39 µM	30 µM
O=[n+]1c2ccccc2n([O-])c2cc(Cl)ccc21	1.24 µM	4.96 µM
Cc1nc(N)sc1-c1csc(Nc2ccc(C(F)(F)F)cc2)n1	2.25 µM	8.77 µM
OCCNCCCOc1ccc2ncnc(Nc3ccc(Oc4cccc(C(F)(F)F)c4)c(Cl)c3)c2c1	0.626 µM	2.21 µM
Cc1[nH]nc2c1N=C(c1ccccc1F)c1cc(C(N)=O)ccc1N2	1.16 µM	8 µM
